Assay results reported in patent US12569536B2, “Macrocyclic peptides for targeted inhibition of autophagy” (Board of Regents, The University of Texas System, priority 2019, dated 2026).
Entries after “also recorded” stand apart in the source; their conditions may differ. Read-outs that look alike come from different tables or passages of the source. Numbered stars: 1 amine (or outer) side, 2 acyl side, 3 side chain; on linkers, the order of the positions; unused ones are H or OH. Bridge positions count the residues as written; N and C are the ends. Square brackets hold non-standard residues; d marks the D form. Primed or numbered codes have the meaning given here. Ends that are not written are not given here. Peptide text beside a SMILES is read from it. DSG″ = disuccinimidyl glutarate, a bis-NHS cross-linker that leaves a glutaryl bridge between two amines; Glutaryl = O=C(CCCC(=O)[*:2])[*:1]; NMeA = CN[C@@H](C)C(=O)O

Legend:
LC3 = LC3 (Homo sapiens, UniProt Q9H492); test: Surface plasmon resonance binding to LC3
LC3A = target: T1, LC3A (Homo sapiens, UniProt Q9H492); assay type: binding; conditions: peptide immobilized on solid phase
T1 construct: made in house

LC3B = LC3B (Homo sapiens, UniProt Q9GZQ8); assay type: binding; conditions: peptide immobilized on solid phase
GABARAP1 = assay type: binding; conditions: peptide immobilized on solid phase
GABARAP2 = GABARAP2 (Homo sapiens, UniProt P60520); assay type: binding; conditions: peptide immobilized on solid phase
Sequence of GABARAP2 (P60520 1-116 limits assumed): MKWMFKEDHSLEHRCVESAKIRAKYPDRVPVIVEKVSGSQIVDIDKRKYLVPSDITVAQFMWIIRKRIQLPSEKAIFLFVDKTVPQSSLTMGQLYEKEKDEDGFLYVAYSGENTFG

Atg8 = Atg8 (Saccharomyces cerevisiae, UniProt P38182); assay type: binding, yeast; conditions: peptide immobilized on solid phase
Sequence of Atg8 (P38182 1-116): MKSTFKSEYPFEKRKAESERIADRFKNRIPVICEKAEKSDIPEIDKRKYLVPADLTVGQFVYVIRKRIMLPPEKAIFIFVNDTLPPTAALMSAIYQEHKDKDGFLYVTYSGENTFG

LC3C = target: T2, LC3C (Homo sapiens, UniProt Q9BXW4); assay type: binding; conditions: peptide immobilized on solid phase
T2 construct: made in house
T2 sequence (Q9BXW4 1-126 limits assumed): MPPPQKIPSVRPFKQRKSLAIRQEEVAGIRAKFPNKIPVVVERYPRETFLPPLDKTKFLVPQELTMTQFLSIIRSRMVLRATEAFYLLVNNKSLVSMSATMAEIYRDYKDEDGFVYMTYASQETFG

ubiquitin = target: T3, ubiquitin (Homo sapiens, UniProt P62987); assay type: binding; conditions: peptide immobilized on solid phase
T3 construct: made in house

[1] = system: Atg4B:LC3-AMC interaction; test: Atg4B cleavage of LC3-AMC (fluorescence); assay type: biochemical; conditions: LC3-AMC 120 nM, Atg4B 220 pM, increasing peptide concentrations
Source text: FIG. 9A—In naturally occurring LIMs, the most common amino acid in the leading position of the motif is tryptophan. […] The reason for this may be that there exists only one codon for tryptophan, making it much less likely to appear in a selected peptide than another W-site recognizing amino acid. Modifying the lead position of SUPR 4B (SEQ ID NO: 1) from phenylalanine to tryptophan was hypothesized to produce a peptide that obtains improved binding affinity towards LC3 by more closely mimicking a naturally occurring LIM. Tryptophan may also confer increased hydrophobicity, which may enhance cell uptake. […] Atg19 is provided in SEQ ID NO: 10, Atg32 is provided in SEQ ID NO: 11, Atg3 is provided in SEQ ID NO: 12, Atg4B is provided in SEQ ID NO: 13, p62 is provided in SEQ ID NO: 14, NBR1 is provided in SEQ ID NO: 15. […] FIG. 9D—LC3-AMC (120 nM) was incubated with Atg4B (220 pM) in the presence of SUPR4B1W or a non-functional scrambled variant at the concentrations shown. Cleavage of LC3-AMC was measured by increased fluorescence (λEx=380 nm, […]).
Cleavage of LC3-AMC was measured by increased fluorescence.

OVCAR8 cells = conditions: 50 μM peptide; for cell viability (MTT), DIRAS3-induced (autophagic) cells: OVCAR8, Dox-induced, 72 hours
Experimental: (§1) FIGS. 6A-D: SUPR4B in the DIRAS3 autophagy model. FIGS. 6A&B—MTT viability assays with 50 M linear and cyclic SUPR 4B on non-DIRAS3 induced OVCAR8 (FIG. 6B) and SKOv3 (FIG. 6A) cells. […] Induction was performed using 1 g/mL DOX.
(§2) FIGS. 8A-F: SUPR4B in the DIRAS3 autophagy model. […] Inhibition of autophagy by the present compound were hypothesized to restore cellular growth. […] FIGS. 8A&B—MTT viability assays with 50 M linear and cyclic SUPR on non-DIRAS3 induced OVCAR8 (FIG. 8A) and SKOv3 (FIG. 8B) cells. […] FIGS. 8C&D—MTT viability assays on the effect of 50 M linear and cyclic LC3 SUPR4B on DIRAS3-induced OVCAR8 (FIG. 8C) and SKOv3 (FIG. 8D) cells. Induction was performed using 1 g/mL DOX.
(§3) After selection, the library was sequenced and lead compounds were subjected to thermodynamic and cellular assays to develop a structure-activity relationship modeling the interaction between the SUPR peptide and the target.

SKOv3 cells = test: MTT viability assay in DIRAS3 autophagy model; conditions: 50 μM peptide; for cell viability (MTT), DIRAS3-induced (autophagic) cells: SKOv3, Dox-induced, 72 hours
Experimental: as §1, §2, §3

SKOv3-ARHI cells = test: Western blotting of p62 and LC3I/LC3II in DIRAS3-induced cells; assay type: cell-based; conditions: peptide-treated, 72 h
Experimental: FIGS. 7A-B: SUPR4B in the DIRAS3 autophagy model.
FIGS. 8A-F: SUPR4B in the DIRAS3 autophagy model. […] Induction was performed using 1 g/mL DOX.

Hey cell line [2] = test: MTT viability assay, cisplatin-resistant ovarian cancer cells; assay type: cell-based; conditions: cisplatin 10 μM + peptide, 48 hr
Source text: (§4) FIGS. 12A-D: SUPR4B1W sensitizes ovarian cancer cells to cisplatin.

OVCAR8 cell line [3] = test: as above; assay type: cell-based; conditions: OVCAR8, cisplatin 10 μM + peptide, 48 hr
Source text: as §4

Hey cell line [4] = test: Western blots of LC3-I/LC3-II and p62, cisplatin-resistant ovarian cancer cells; assay type: cell-based; conditions: 48 hr
Source text: as §4

OVCAR8 cell line [5] = test: as above; assay type: cell-based; conditions: 48 hr
Source text: as §4

[6] = system: OVCAR8 orthotopic ovarian tumors; test: Orthotopic ovarian tumor model with carboplatin; assay type: in vivo
Experimental: FIG. 13: SUPR4B1W sensitizes orthotopic ovarian tumors to carboplatin treatment. Mice were injected IP with 2 million OVCAR8 cells and treated three times per week for four weeks with vehicle control, SUPR peptide (10 mg/kg), carboplatin (25 mg/kg), or combination of SUPR peptide and carboplatin. At the end of four weeks, mice were sacrificed and tumors were dissected. […] For each vertical groups of data points, the top group represents Mouse Weight and the bottom group represents Tumor Weight.
In animal model experiments, mice were implanted with a cisplatin-resistant ovarian cancer cell line (OVCAR8) and treated with carboplatin, SUPR4B1W peptide, or carboplatin+SUPR4B1W peptide for 4 weeks. At the conclusion of the study, the mice were sacrificed and the mass of the intraperitoneal tumors measured.

[7] = system: HeLa cells stably transfected with a GFP-LC3 fusion; assay type: cell-based; conditions: HeLa starved in Hank's Balanced Salt Solution
Source text: FIG. 11: Confocal microscopy of SUPR 4B1W-Rox in autophagic HeLa cells. A line of HeLa cells was stably transfected with a GFP-LC3 fusion. When starved for 2+ hours in Hank's Balanced Salt Solution, these cells become autophagic and GFP signal becomes punctate as GFP-LC3 fusions are embedded in the autophagosome.

## CSCC[C@@H]1NC(=O)CCCC(=O)NCCCC[C@@H](C(=O)O)NC(=O)[C@H](C)N(C)C(=O)[C@H](C)NC(=O)[C@H]([C@@H](C)O)NC(=O)[C@H](C(C)C)NC(=O)[C@H](CCCNC(=N)N)NC(=O)[C@H](Cc2c[nH]cn2)NC(=O)[C@@H]2CCCN2C(=O)[C@H](Cc2c[nH]c3ccccc23)NC1=O [SUPR 4B1W] (MWPHRVTA[NMeA]K-OH; linker N-10 via Glutaryl)
LC3
  improvement of apparent dissociation constant relative to SUPR4B: ~10 fold
LC3A
  binding to LC3A: bound tightly
LC3B
  binding to LC3B: bound tightly
GABARAP1
  binding to GABARAP1: moderate off-target binding
GABARAP2
  binding to GABARAP2: moderate off-target binding
Atg8
  binding to yeast LC3 ortholog Atg8: moderate off-target binding
LC3C
  binding to LC3C: Almost no binding
ubiquitin
  binding to ubiquitin: Almost no binding
[1]
  Cleavage of LC3-AMC by Atg4B (fluorescent signal): significantly decreased fluorescent signal
OVCAR8 cells
  cell viability (MTT), DIRAS3-induced (autophagic) cells: enhanced viability rescue phenotype
OVCAR8 cells; listed as SUPR4B1W
  cell viability (MTT), DIRAS3-induced (autophagic) cells: almost completely restores cell viability
OVCAR8 cells; OVCAR8, no Dox (non-autophagic), up to 72 hours
  cell viability (MTT), non-DIRAS3 induced cells: no change in cell viability
SKOv3 cells
  cell viability (MTT), DIRAS3-induced (autophagic) cells: enhanced viability rescue phenotype
SKOv3 cells; listed as SUPR4B1W
  cell viability (MTT), DIRAS3-induced (autophagic) cells: almost completely restores cell viability
SKOv3 cells; SKOv3, no Dox (non-autophagic), up to 72 hours
  cell viability (MTT), non-DIRAS3 induced cells: no change in cell viability
SKOv3-ARHI cells
  LC3I/LC3II ratio: decreased LC3I/LC3II ratio
  p62 protein levels: accumulation of p62
Hey cell line [2]
  cell viability (MTT) in combination with cisplatin: re-sensitized the resistant cell lines to cisplatin
OVCAR8 cell line [3]
  cell viability (MTT) in combination with cisplatin: re-sensitized the resistant cell lines to cisplatin
Hey cell line [4]; cisplatin 10 μM + peptide 50 µM
  p62 accumulation in combination with cisplatin: triggered accumulation of p62
Hey cell line [4]; cisplatin 10 μM + peptide
  LC3-I/LC3-II ratios in combination with cisplatin: dramatically perturbed LC3-I/LC3-II ratios
OVCAR8 cell line [5]; OVCAR8, cisplatin 10 μM + peptide 50 µM
  p62 accumulation in combination with cisplatin: triggered accumulation of p62
OVCAR8 cell line [5]; OVCAR8, cisplatin 10 μM + peptide
  LC3-I/LC3-II ratios in combination with cisplatin: dramatically perturbed LC3-I/LC3-II ratios
[6]; IP OVCAR8, four weeks, peptide 10 mg/kg + carboplatin 25 mg/kg
  number of mice with no detectable tumors, peptide combined with carboplatin: 6 mice
[6]; mice, IP OVCAR8, three times per week for four weeks, SUPR peptide 10 mg/kg or carboplatin 25 mg/kg
  final tumor mass, agent administered alone: no change in tumor volume
[6]; mice, IP OVCAR8, three times per week for four weeks, peptide 10 mg/kg + carboplatin 25 mg/kg
  final tumor mass, peptide combined with carboplatin: almost completely tumor-free; also recorded: significantly reduced tumor mass

## SUPR 4B1W-ROX: SUPR 4B1W conjugated to the fluorophore ROX (MWPHRVTA[NMeA]K; bridge N-10 via DSG″; also: conjugated to fluorophore ROX, site not given here)
[7]
  co-localization with GFP-LC3: Significant co-localization of ROX and GFP signal
